System: Dogs
Test: Effect on dog intraocular pressure, applanation pneumatonometry
Assay type: in vivo
Details: for time (Hr) of IOP max % decrease / time (Hr) of IOP max mmHg / IOP max mmHg / IOP max % decrease: 25 μl to the ocular surface, concentration 0.03%; for IOP max mmHg / IOP max % decrease: at the time of maximum given in the cell; for IOP max % decrease: vehicle 0.1% polysorbate 80 and 10 mM TRIS base; for ocular hypotensive effect in dogs: topical ocular administration, result in words
Protocol: The compounds were prepared at the said concentrations in a vehicle comprising 0.1% polysorbate 80 and 10 mM TRIS base. Dogs were treated by administering 25 μl to the ocular surface, the contralateral eye received vehicle as a control. Intraocular pressure was measured by applanation pneumatonometry. […]

| Compound | time (Hr) of IOP max % decrease [h] | time (Hr) of IOP max mmHg [h] | IOP max mmHg [mmHg] | IOP max % decrease [%] | ocular hypotensive effect in dogs |
| --- | --- | --- | --- | --- | --- |
| CS(=O)(=O)NC(=O)CCC/C=C\C[C@@H]1[C@@H](/C=C/[C@@H](O)CCc2ccc(Cl)s2)[C@H](O)C[C@@H]1O [Compound 9c] | 102 | 102 | −4.2 | −23.8 | pronounced ocular hypotensive effect |
| CCS(=O)(=O)NC(=O)CCC/C=C\C[C@@H]1[C@@H](/C=C/[C@@H](O)CCc2cc(C)c(Br)s2)[C@H](O)C[C@@H]1O [Compound 10a, Ethanesulfonic acid ((Z)-7-{(1R,2R,3R,5S)-2-[(S)-(E)-5-(5-bromo-4-methylthiophen-2-yl)-3-hydroxypent-1-enyl]-3,5-dihydroxycyclopentyl}hept-5-enoyl)amide] | 4 | 4 | −5.1 | −24.9 | pronounced ocular hypotensive effect |
| Cc1sc(CC[C@H](O)/C=C/[C@@H]2[C@@H](C/C=C\CCCC(=O)NS(=O)(=O)c3ccccc3)[C@@H](O)C[C@H]2O)cc1Cl [Compound 19b] | 74 | 74 | −2.6 | −13.0 | pronounced ocular hypotensive effect |
| Cc1sc(CC[C@H](O)/C=C/[C@@H]2[C@@H](C/C=C\CCCC(=O)NS(C)(=O)=O)[C@@H](O)C[C@H]2O)cc1Cl [Compound 9b, N-((Z)-7-{(1R,2R,3R,5S)-2-[(S)-(E)-5-(4-Chloro-5-methylthiophen-2-yl)-3-hydroxypent-1-enyl]-3,5-dihydroxycyclopentyl}hept-5-enoyl)methanesulfonamide] | 96 | 96 | −4.9 | −26.5 | pronounced ocular hypotensive effect |
| CS(=O)(=O)NC(=O)CCC/C=C\C[C@@H]1[C@@H](/C=C/[C@@H](O)CCc2ccc(Br)s2)[C@H](O)C[C@@H]1O [Compound 9e] | 100 | 100 | −2.0 | −11.7 | pronounced ocular hypotensive effect |
| Cc1cc(CC[C@H](O)/C=C/[C@@H]2[C@@H](C/C=C\CCCC(=O)NS(C)(=O)=O)[C@@H](O)C[C@H]2O)sc1Br [Compound 9a, N-((Z)-7-{(1R,2R,3R,5S)-2-[(S)-(E)-5-(5-Bromo-4-methylthiophen-2-yl)-3-hydroxypent-1-enyl]-3,5-dihydroxycyclopentyl}hept-5-enoyl)methanesulfonamide] | 72 | 72 | −2.8 | −13.6 | pronounced ocular hypotensive effect |
| Cc1cc(CC[C@H](O)/C=C/[C@@H]2[C@@H](C/C=C\CCCC(=O)N(COC(=O)C(C)(C)C)S(C)(=O)=O)[C@@H](O)C[C@H]2O)sc1Br [Compound 18a] | 24 | 24 | −3.9 | −22.0 | pronounced ocular hypotensive effect |
